# Source: patent publication US8216786B2, “Genetic polymorphisms associated with cardiovascular diseases, methods of detection and uses thereof” (Celera Corporation, priority 2008, dated 2012)
# Tested on: individuals who have previously had an MI
# Assay: CARE trial: effect of pravastatin vs placebo on coronary events (endpt1, rmi) by SNP genotype subgroup
# Type: in vivo, human
# Experimental: In Tables 21-22, the column labeled “Endpoint” indicates whether the endpoint that was analyzed was the primary endpoint of the CARE study (a composite endpoint of fatal coronary event or nonfatal MI, and identified as “endpt1”) or a composite endpoint of confirmed fatal or nonfatal MI (identified as “rmi”). […] As used herein, the term “benefit” (with respect to a preventive or therapeutic drug treatment) is defined as achieving a reduced risk for a disease that the drug is intended to treat or prevent (e.g., CVD such as CHD, particularly MI, or hypertension) by administering the drug treatment, compared with the risk for the disease in the absence of receiving the drug treatment (or receiving a placebo in lieu of the drug treatment) for the same genotype. […] J. […] (1996) New England Journal of Medicine 335: 1001-1009. […] A well-documented MI was one of the enrollment criteria for entry into the CARE study. Patients were enrolled in the CARE trial from 80 participating study centers. […] For the study of CARE described in this Example and shown in Tables 21-22, two endpoints were investigated: the primary endpoint of CARE (a composite endpoint of fatal coronary event or nonfatal MI, and identified as “endpt1” in the Endpoint column of Tables 21-22) and a composite endpoint of confirmed fatal or nonfatal MI (identified as “rmi” in the Endpoint column of Tables 21-22). […] HR stands for Hazard Ratio, which is a concept similar to Odds Ratio (OR). The HR in event-free survival analysis is the effect of an explanatory variable on the hazard or risk of an event. […] In Table 21, p-interaction values were calculated. An interaction (or effect modification) is formed when a third variable modifies the relation between an exposure and outcome. […] Genotype and drug interaction is present when the effect of statins (incidence rate of disease in statin-treated group, as compared to placebo) differs in patients with different genotypes.
# [1] = endpt1, hCV370782 rs9841174 SERPINI2, CC
# [2] = endpt1, hCV370782 rs9841174 SERPINI2, CT + TT
# [3] = endpt1, hCV795442 rs375947 IL12RB1, AA
# [4] = endpt1, hCV795442 rs375947 IL12RB1, GA + GG
# [5] = endpt1, hCV818008 rs5918 ITGB3, CC
# [6] = endpt1, hCV818008 rs5918 ITGB3, CT + TT
# [7] = endpt1, hCV904973 rs7412 APOE, CC
# [8] = endpt1, hCV904973 rs7412 APOE, TC + TT
# [9] = endpt1, hCV997884 rs512770, AG + GG
# [10] = endpt1, hCV2553030 rs11230562 CD6, TC + CC
# [11] = endpt1, hCV2553030 rs11230562 CD6, TT
# [12] = endpt1, hCV2769554 rs1805010 IL4R, GA + AA
# [13] = endpt1, hCV2769554 rs1805010 IL4R, GG
# [14] = endpt1, hCV2822674 rs1801222 CUBN, AA
# [15] = endpt1, hCV2822674 rs1801222 CUBN, AG + GG
# [16] = endpt1, hCV2983036 rs9527025 KL, CC
# [17] = endpt1, hCV2983036 rs9527025 KL, CG
# [18] = endpt1, hCV2983036 rs9527025 KL, GG
# [19] = endpt1, hCV2992252 rs6037651 SIGLEC1, CC
# [20] = endpt1, hCV2992252 rs6037651 SIGLEC1, CT + TT
# [21] = endpt1, hCV3135085 rs10795446 CUBN, GG
# [22] = endpt1, hCV3187716 rs5186 AGTR1, CA + AA
# [23] = endpt1, hCV3187716 rs5186 AGTR1, CC
# [24] = endpt1, hCV3215409 rs267561 ITGA9, GA + AA
# [25] = endpt1, hCV3215409 rs267561 ITGA9, GG
# [26] = endpt1, hCV3219460 rs1799983 NOS3, TG + GG
# [27] = endpt1, hCV3219460 rs1799983 NOS3, TT
# [28] = endpt1, hCV7514870 rs1041981 LTA, AA
# [29] = endpt1, hCV7514870 rs1041981 LTA, AC + CC
# [30] = endpt1, hCV8705506 rs5516 KLK1, CG + CC
# [31] = endpt1, hCV8705506 rs5516 KLK1, GG
# [32] = endpt1, hCV8708473 rs1800469 TMEM91, AA
# [33] = endpt1, hCV8708473 rs1800469 TMEM91, AG + GG
# [34] = endpt1, hCV8708474 rs1800468 MGC4093, CC
# [35] = endpt1, hCV8708474 rs1800468 MGC4093, TC + TT
# [36] = endpt1, hCV8709053 rs4880 SOD2, GA + AA
# [37] = endpt1, hCV8709053 rs4880 SOD2, GG
# [38] = endpt1, hCV8718197 rs1050998 CXCL16, AA
# [39] = endpt1, hCV8718197 rs1050998 CXCL16, GA + GG
# [40] = endpt1, hCV8726337 rs5498 ICAM1, AA
# [41] = endpt1, hCV8726337 rs5498 ICAM1, GA + GG
# [42] = endpt1, hCV8737990 rs419598 IL1RN, CC
# [43] = endpt1, hCV8737990 rs419598 IL1RN, CT + TT
# [44] = endpt1, hCV8784787 rs688976, AA
# [45] = endpt1, hCV8784787 rs688976, AC + CC
# [46] = endpt1, hCV8804621 rs1390938 SLC18A1, AA
# [47] = endpt1, hCV8804621 rs1390938 SLC18A1, AG + GG
# [48] = endpt1, hCV8848630 rs7192 HLA-DRA, GG
# [49] = endpt1, hCV8848630 rs7192 HLA-DRA, TG + TT
# [50] = endpt1, hCV8851047 rs45614833 HLA-DPA1, CC
structure (smiles),measurement,setting,value
CC[C@H](C)C(=O)O[C@H]1C[C@H](O)C=C2C=C[C@H](C)[C@H](CC[C@@H](O)C[C@@H](O)CC(=O)O)[C@H]21 [pravastatin],"Hazard ratio, Pravastatin vs placebo","CARE, SNP hCV11170747, genotype strata in row order",0.87
same,EVENTS (Pravastatin arm),[1],20
same,NONEVENT (Pravastatin arm),[1],194
same,EVENTS (Pravastatin arm),[2],113
same,NONEVENT (Pravastatin arm),[2],1097
same,EVENTS (Pravastatin arm),[3],52
same,NONEVENT (Pravastatin arm),[3],599
same,EVENTS (Pravastatin arm),[4],80
same,NONEVENT (Pravastatin arm),[4],691
same,EVENTS (Pravastatin arm),[5],7
same,NONEVENT (Pravastatin arm),[5],26
same,EVENTS (Pravastatin arm),[6],126
same,NONEVENT (Pravastatin arm),[6],1266
same,EVENTS (Pravastatin arm),[7],114
same,NONEVENT (Pravastatin arm),[7],1149
same,EVENTS (Pravastatin arm),[8],19
same,NONEVENT (Pravastatin arm),[8],141
same,EVENTS (Pravastatin arm),"endpt1, hCV997884 rs512770, AA",5
same,NONEVENT (Pravastatin arm),"endpt1, hCV997884 rs512770, AA",42
same,EVENTS (Pravastatin arm),[9],126
same,NONEVENT (Pravastatin arm),[9],1241
same,EVENTS (Pravastatin arm),[10],129
same,NONEVENT (Pravastatin arm),[10],1179
same,EVENTS (Pravastatin arm),[11],3
same,NONEVENT (Pravastatin arm),[11],107
same,EVENTS (Pravastatin arm),[12],101
same,NONEVENT (Pravastatin arm),[12],1001
same,EVENTS (Pravastatin arm),[13],32
same,NONEVENT (Pravastatin arm),[13],287
same,EVENTS (Pravastatin arm),[14],10
same,NONEVENT (Pravastatin arm),[14],150
same,EVENTS (Pravastatin arm),[15],123
same,NONEVENT (Pravastatin arm),[15],1140
same,EVENTS (Pravastatin arm),[16],4
same,NONEVENT (Pravastatin arm),[16],22
same,EVENTS (Pravastatin arm),[17],32
same,NONEVENT (Pravastatin arm),[17],363
same,EVENTS (Pravastatin arm),[18],97
same,NONEVENT (Pravastatin arm),[18],906
same,EVENTS (Pravastatin arm),[19],8
same,NONEVENT (Pravastatin arm),[19],196
same,EVENTS (Pravastatin arm),[20],124
same,NONEVENT (Pravastatin arm),[20],1089
same,EVENTS (Pravastatin arm),[21],10
same,NONEVENT (Pravastatin arm),[21],147
same,EVENTS (Pravastatin arm),[22],128
same,NONEVENT (Pravastatin arm),[22],1176
same,EVENTS (Pravastatin arm),[23],5
same,NONEVENT (Pravastatin arm),[23],112
same,EVENTS (Pravastatin arm),[24],118
same,NONEVENT (Pravastatin arm),[24],1057
same,EVENTS (Pravastatin arm),[25],15
same,NONEVENT (Pravastatin arm),[25],235
same,EVENTS (Pravastatin arm),[26],124
same,NONEVENT (Pravastatin arm),[26],1114
same,EVENTS (Pravastatin arm),[27],9
same,NONEVENT (Pravastatin arm),[27],177
same,EVENTS (Pravastatin arm),[28],12
same,NONEVENT (Pravastatin arm),[28],172
same,EVENTS (Pravastatin arm),[29],121
same,NONEVENT (Pravastatin arm),[29],1118
same,EVENTS (Pravastatin arm),[30],66
same,NONEVENT (Pravastatin arm),[30],749
same,EVENTS (Pravastatin arm),[31],67
same,NONEVENT (Pravastatin arm),[31],543
same,EVENTS (Pravastatin arm),[32],9
same,NONEVENT (Pravastatin arm),[32],139
same,EVENTS (Pravastatin arm),[33],124
same,NONEVENT (Pravastatin arm),[33],1153
same,EVENTS (Pravastatin arm),[34],103
same,NONEVENT (Pravastatin arm),[34],1068
same,EVENTS (Pravastatin arm),[35],30
same,NONEVENT (Pravastatin arm),[35],212
same,EVENTS (Pravastatin arm),[36],105
same,NONEVENT (Pravastatin arm),[36],954
same,EVENTS (Pravastatin arm),[37],28
same,NONEVENT (Pravastatin arm),[37],335
same,EVENTS (Pravastatin arm),[38],33
same,NONEVENT (Pravastatin arm),[38],409
same,EVENTS (Pravastatin arm),[39],98
same,NONEVENT (Pravastatin arm),[39],879
same,EVENTS (Pravastatin arm),[40],31
same,NONEVENT (Pravastatin arm),[40],430
same,EVENTS (Pravastatin arm),[41],102
same,NONEVENT (Pravastatin arm),[41],857
same,EVENTS (Pravastatin arm),[42],15
same,NONEVENT (Pravastatin arm),[42],96
same,EVENTS (Pravastatin arm),[43],117
same,NONEVENT (Pravastatin arm),[43],1193
same,EVENTS (Pravastatin arm),[44],6
same,NONEVENT (Pravastatin arm),[44],57
same,EVENTS (Pravastatin arm),[45],126
same,NONEVENT (Pravastatin arm),[45],1234
same,EVENTS (Pravastatin arm),[46],8
same,NONEVENT (Pravastatin arm),[46],69
same,EVENTS (Pravastatin arm),[47],125
same,NONEVENT (Pravastatin arm),[47],1218
same,EVENTS (Pravastatin arm),[48],59
same,NONEVENT (Pravastatin arm),[48],485
same,EVENTS (Pravastatin arm),[49],74
same,NONEVENT (Pravastatin arm),[49],802
same,EVENTS (Pravastatin arm),[50],7
same,NONEVENT (Pravastatin arm),[50],32
same,EVENTS (Pravastatin arm),"endpt1, hCV8851047 rs45614833 HLA-DPA1, CT + TT",126
